# Measured values as given in patent US8680269B2, “Pesticidal compositions” (Dow AgroSciences, LLC., priority 2009, dated 2014).
# Assays:
# Assay type in all cases: in vivo
# [1] = tested on: corn earworm (CEW; Helicoverpa zea); test: Insecticidal test for corn earworm, 128-well diet tray assay; conditions: 144 h, 50 μg/cm2 on artificial diet, second instar larvae, six days at 25° C.
# Experimental: (§1) Bioassays on corn earworm (CEW; Helicoverpa zea: Lepidoptera) were conducted using a 128-well diet tray assay. Three to five second instar CEW larvae were placed in each well (3 mL) of the diet tray that had been previously filled with 1 mL of artificial diet to which 50 μg/cm^2 of the test compound (dissolved in 50 μL of 90:10 acetone-water mixture) had been applied (to each of eight wells) and then allowed to dry. Trays were covered with a clear self-adhesive cover, and held at 25° C., 14:10 light-dark for six days. Percent mortality was recorded for the larvae in each well; activity in the eight wells was then averaged.
# [2] = tested on: green peach aphid (Myzus persicae); test: Insecticidal test for green peach aphid in foliar spray assay; conditions: 72 h, 200 ppm foliar spray on cabbage seedlings, graded after three days, Abbott corrected % control, read-out: Mortality GPA 200 ppm
# Experimental: Cabbage seedlings grown in 3-inch pots, with 2-3 small (3-5 cm) true leaves, were used as test substrate. The seedlings were infested with 20-50 green peach aphids (wingless adult and nymph) one day prior to chemical application. Four pots with individual seedlings were used for each treatment. Compounds (2 mg) were dissolved in 2 mL of acetone/methanol (1:1) solvent, forming stock solutions of 1000 ppm. The stock solutions were diluted 5× with 0.025% Tween 20 in H2O to obtain the test solution at 200 ppm. A hand-held Devilbiss sprayer was used for spraying a solution to both sides of cabbage leaves until runoff. Reference plants (solvent check) were sprayed with the diluent only. Treated plants were held in a holding room for three days at approximately 25° C. and 40% relative humidity (RH) prior to grading. Evaluation was conducted by counting the number of live aphids per plant under a microscope. Insecticidal activity data, measured by using Abbott's correction formula, are presented in Table 2: Corrected % Control=100*(X−Y)/X • where X=No. of live aphids on solvent check plants • Y=No. of live aphids on treated plants
# [3] = tested on: beet armyworm (BAW; Spodoptera exigua); test: Insecticidal test for beet armyworm, 128-well diet tray assay; conditions: 144 h, 50 μg/cm2 on artificial diet, second instar larvae, six days at 25° C.
# Experimental: as §1, with “beet armyworm (BAW; Spodoptera exigua:” for “corn earworm (CEW; Helicoverpa zea:”, “BAW” for “CEW”
SMILES,mortality at 50 µg/cm2 [1],mortality at 200 ppm [2],mortality at 50 µg/cm2 [3]
FC(F)(F)Oc1ccc(-n2cnc(-c3ccc(/C=N/NC(=S)Nc4ccc(C(F)(F)F)cc4)cc3)n2)cc1 [Compound 32],< 50%,< 80%,< 50%
CCCCCNC(=S)N/N=C/c1ccc(-c2ncn(-c3ccc(OC(F)(F)F)cc3)n2)cc1 [Compound 24],< 50%,< 80%,50 to 100%
COCCNC(=S)N/N=C/c1ccc(-c2ncn(-c3ccc(OC(F)(F)F)cc3)n2)cc1 [Compound 18],50 to 100%,< 80%,50 to 100%
COc1ccc(NC(=S)N/N=C/c2ccc(-c3ncn(-c4ccc(OC(F)(F)F)cc4)n3)cc2)c(C(F)(F)F)c1 [Compound 51],50 to 100%,< 80%,50 to 100%
COc1ccc(NC(=O)N/N=C/c2ccc(-c3ncn(-c4ccc(OC(F)(F)F)cc4)n3)cc2)c(C)c1 [Compound 119],50 to 100%,< 80%,50 to 100%
FC(F)(F)Oc1ccc(-n2cnc(-c3ccc(/C=N/NC(=S)Nc4ccc(Cl)cn4)cc3)n2)cc1 [Compound 59],< 50%,< 80%,< 50%
C=CCNC(=S)N/N=C/c1ccc(-c2ncn(-c3ccc(OC(F)(F)F)cc3)n2)cc1 [Compound 12],50 to 100%,< 80%,50 to 100%
COc1cc(C)c(NC(=S)N/N=C/c2ccc(-c3ncn(-c4ccc(OC(F)(F)C(F)(F)F)cc4)n3)cc2)c(C)c1 [Compound 128],50 to 100%,< 80%,50 to 100%
COc1cc(C)ccc1NC(=S)N/N=C/c1ccc(-c2ncn(-c3ccc(OC(F)(F)F)cc3)n2)cc1 [Compound 117],50 to 100%,,50 to 100%
COCc1ccc(C(C)NC(=S)N/N=C/c2ccc(-c3ncn(-c4ccc(OC(F)(F)F)cc4)n3)cc2)cc1 (stereo not drawn) [Compound 157],50 to 100%,,50 to 100%
Cc1ccc(NC(=S)N/N=C/c2ccc(-c3ncn(-c4ccc(OC(F)(F)F)cc4)n3)cc2)c(C(C)C)c1 [Compound 96],50 to 100%,,50 to 100%
CC(NC(=S)N/N=C/c1ccc(-c2ncn(-c3ccc(OC(F)(F)F)cc3)n2)cc1)c1cccnc1 (stereo not drawn) [Compound 158],50 to 100%,,50 to 100%
CC(NC(=S)N/N=C/c1ccc(-c2ncn(-c3ccc(OC(F)(F)F)cc3)n2)cc1)c1ccccc1 (stereo not drawn) [Compound 152],50 to 100%,,50 to 100%
Fc1cc(F)c(NC(=S)N/N=C/c2ccc(-c3ncn(-c4ccc(OC(F)(F)F)cc4)n3)cc2)c(F)c1 [Compound 98],50 to 100%,,50 to 100%
FC(F)(F)Oc1ccc(-n2cnc(-c3ccc(/C=N/NC(=S)NCc4ccsc4)cc3)n2)cc1 [Compound 154],50 to 100%,,50 to 100%
Cc1ccc(NC(=S)N/N=C/c2ccc(-c3ncn(-c4ccc(OC(F)(F)F)cc4)n3)cc2)cc1 [Compound 92],50 to 100%,,50 to 100%
COC(=O)C1CC(c2ccc(/C=N/NC(=S)Nc3c(Cl)cccc3Cl)cc2)=NN1c1ccc(OC(F)(F)F)cc1 (stereo not drawn) [Compound 131],50 to 100%,,50 to 100%
CCCCc1ccc(-n2cnc(-c3ccc(/C=N/NC(=S)Nc4c(C)cc(OC)cc4C)cc3)n2)cc1 [Compound 124],50 to 100%,,50 to 100%
CC(NC(=S)N/N=C/c1ccc(-c2ncn(-c3ccc(OC(F)(F)F)cc3)n2)cc1)c1ccc2c(c1)OCO2 (stereo not drawn) [Compound 159],50 to 100%,,50 to 100%

SMILES,mortality at 50 µg/cm2 [1],mortality at 200 ppm [2],mortality at 50 µg/cm2 [3]
CSc1cc(C)c(NC(=S)N/N=C/c2ccc(-c3ncn(-c4ccc(OC(F)(F)F)cc4)n3)cc2)c(C)c1 [Compound 100],50 to 100%,,50 to 100%
Fc1cccc(Br)c1NC(=S)N/N=C/c1ccc(-c2ncn(-c3ccc(OC(F)(F)F)cc3)n2)cc1 [Compound 105],50 to 100%,,50 to 100%
COc1ccc(NC(=S)N/N=C/c2ccc(-c3ncn(-c4ccc(OC(F)(F)F)cc4)n3)cc2)c(C(C)C)c1 [Compound 121],50 to 100%,,50 to 100%
Cc1cccc(C)c1NC(=S)N/N=C/c1ccc(-c2ccn(-c3ccc(OC(F)(F)F)cc3)c2)cc1 [Compound 134],50 to 100%,,50 to 100%
FC(F)(F)Oc1ccc(-n2ccc(-c3ccc(/C=N/NC(=S)Nc4c(Cl)cccc4Cl)cc3)n2)cc1 [Compound 137],50 to 100%,,50 to 100%
COc1ccc(C(C)NC(=S)N/N=C/c2ccc(-c3ncn(-c4ccc(OC(F)(F)F)cc4)n3)cc2)cc1C (stereo not drawn) [Compound 149],50 to 100%,,50 to 100%
CC(C)c1ccccc1NC(=S)N/N=C/c1ccc(-c2ncn(-c3ccc(OC(F)(F)F)cc3)n2)cc1 [Compound 80],50 to 100%,,50 to 100%
Cc1ccnc(C)c1NC(=S)N/N=C/c1ccc(-c2ncn(-c3ccc(OC(F)(F)F)cc3)n2)cc1 [Compound 102],50 to 100%,,50 to 100%
CC(NC(=S)N/N=C/c1ccc(-c2ncn(-c3ccc(OC(F)(F)F)cc3)n2)cc1)c1ccsc1 (stereo not drawn) [Compound 155],50 to 100%,,50 to 100%
COc1ccc(C)cc1NC(=S)N/N=C/c1ccc(-c2ncn(-c3ccc(OC(F)(F)F)cc3)n2)cc1 [Compound 89],50 to 100%,,50 to 100%
COc1cc(C)c(NC(=S)N/N=C/c2ccc(-c3ncn(-c4ccc(OC(F)(F)F)cc4)n3)cc2)c(C)c1 [Compound 116],50 to 100%,,50 to 100%
COc1ccc(C(C)NC(=S)N/N=C/c2ccc(-c3ncn(-c4ccc(OC(F)(F)F)cc4)n3)cc2)cc1 (stereo not drawn) [Compound 143],50 to 100%,,50 to 100%
FC(F)(F)Oc1ccc(-n2cnc(-c3ccc(/C=N/NC(=S)Nc4c(Br)cccc4Br)cc3)n2)cc1 [Compound 48],50 to 100%,,50 to 100%
C=C(C)c1ccccc1NC(=S)N/N=C/c1ccc(-c2ncn(-c3ccc(OC(F)(F)F)cc3)n2)cc1 [Compound 91],50 to 100%,,50 to 100%
Cc1cc(C)c(NC(=S)N/N=C/c2ccc(-c3ncn(-c4ccc(OC(F)(F)F)cc4)n3)cc2)c(C)c1 [Compound 93],50 to 100%,,50 to 100%
COc1cc(Cl)c(NC(=S)N/N=C/c2ccc(-c3ncn(-c4ccc(OC(F)(F)F)cc4)n3)cc2)c(Cl)c1 [Compound 115],50 to 100%,,50 to 100%
CCCc1ccccc1NC(=S)N/N=C/c1ccc(-c2ncn(-c3ccc(OC(F)(F)F)cc3)n2)cc1 [Compound 82],50 to 100%,,50 to 100%
Cc1ccccc1C(C)NC(=S)N/N=C/c1ccc(-c2ncn(-c3ccc(OC(F)(F)F)cc3)n2)cc1 (stereo not drawn) [Compound 147],50 to 100%,,50 to 100%
Cc1cc(Cl)cc(C)c1NC(=S)N/N=C/c1ccc(-c2ncn(-c3ccc(OC(F)(F)F)cc3)n2)cc1 [Compound 114],50 to 100%,,50 to 100%
